Source: patent US11434472B2, “Agent for removing undifferentiated iPS cells” (Sumitomo Pharma Co., Ltd., priority 2016, dated 2022)

How the values were obtained:
Assay type in all cases: cell-based
[1] = test system: differentiation-inducing cell aggregates formed from human iPS cells; assay: Effect on differentiation-inducing cell aggregates (Cleaved Caspase-3 immunostaining); details: 24 hours, aggregates without treatment 19%
Protocol: Firstly, differentiation-inducing cell aggregates were prepared according to the following procedures.
According to a similar method to that of Test Example 2, the human iPS cells one day before subconfluence were cultured under feeder free conditions using the StemFit medium (AK03; Ajinomoto) in the presence of SB431542 (TGFβ signaling pathway inhibitory compound (TGFβR-i), 5 μmol/L) for 1 day. A 6-well plate (Iwaki, for cell culture, culture area 9.4 cm^2) was used as the plastic culture dish, and the number of plated cells for the human iPS cells dispersed into single cells was set 1.0×10^4. The cells were treated with cell dispersion using TrypLE Select (Life Technologies), and dispersed into single cells by pipetting operation. The cells were then suspended in 100 μl of a serum-free medium at 1.0×10^4 cells per well of a non-cell adhesive 96-well culture plate (PrimeSurface 96V-bottom plate, manufactured by SUMITOMO BAKELITE), and cultured in suspension at 37° C. and 5% CO2. As the serum-free medium (gfCDM+KSR), a serum-free medium which is 1:1 mixture of F-12 medium and IMDM medium supplemented with 10% KSR, 450 μmol/L 1-monothioglycerol, and 1×Chemically defined lipid concentrate was used. At the time of the start of suspension culture (day 0 after the start of suspension culture), Y27632 (final concentration: 20 μmol/L) was added to the medium, and the cells was further cultured using a medium containing Wnt signaling inhibitory compound (IWR-1e, 3 μmol/L).
After culturing at 37° C. and 5% CO2 for 24 hours, the medium was changed to the serum-free medium containing the present compound in a final concentration of 0.1 μmol/L or 1 μmol/L, or DMSO in a concentration equal thereto, and the cells were cultured for additional 24 hours. After 24 hours, the obtained cell aggregates were fixed with 4% paraformaldehyde to prepare frozen sections. […] The immunostained sections were observed by inverted fluorescence microscope (Keyence, BIREVO). In addition, the Cleaved Caspase-3 positive area was calculated using the NIH Image-J software.

human iPS cells = assay: Evaluation of cytotoxic activity against iPS cells (DAPI nuclear staining, DAPI positive area); details: 24 hours
Protocol: Human iPS cells were cultured under feeder-free condition according to the method described in Scientific Reports, 4, 3594 (2014). The StemFit medium (AKO3N, Ajinomoto) was used as feeder-free medium, and Laminin511-E8 (Nippi) was used as feeder-free scaffold.
The subconfluent human iPS cells were washed with PBS and dispersed into single cells using TrypLE Select (Life Technologies). The human iPS cells were then seeded in a plastic culture dish coated with Laminin511-E8, and cultured under feeder-free conditions at 37° C. and 5% CO2 using the StemFit medium in the presence of Y27632 (ROCK inhibitory compound, 10 μmol/L). A 96-well plate (BD, for cell culture, culture area 0.35 cm^2) was used as the plastic culture dish, and the number of plated cells for the human iPS cells dispersed into single cells was set to 0.03×10^4. The medium was changed to Y27632-free StemFit medium 1 day after the seeding. Thereafter, the medium was changed to the Y27632-free StemFit medium once in 1 to 2 days. The cells were then cultured until subconfluent (60% of culture area is covered with the cells). To the human iPS cells was added the Stem Fit medium (AK03; Ajinomoto) to adjust the final concentrations of the compounds of Examples 1-2, 10-2, and 22 dissolved in DMSO to 10, 1, 0.1, and 0.01 μmol/L, and the cells were cultured for 24 hours.
After 24 hours, the medium was removed, the obtained cells were each fixed with 4% paraformaldehyde at 4° C. for 15 minutes, PBS solution containing DAPI (Sigma) was added thereto to perform nuclear staining for the cells, and then the cells were observed by inverted fluorescence microscope (Keyence, BIREVO). In addition, the DAPI positive area was calculated using the quantitative software of the microscope.

HCT-116 cells = assay: Test for inhibiting sphere-forming ability of cancer cells; details: Homo sapiens, 96 h, non-adherent serum-free sphere culture, 4 days, CellTiter-Glo, read-out: IC50 (Sphere IC50 value; concentration for 50% inhibition of cell proliferation)
Protocol: The reliable methods established for measuring the self-renewal ability of cells which is one of the CSC's properties include a method for measuring the sphere-forming ability of cancer cells in non-adherent condition in the absence of serum (Cancer Res 65, 5506-5511 (2005)). HCT-116 cells were available from the American Type Culture Collection (ATCC). HCT-116 cells were cultured at 37° C. and 5% CO2 using the McCoy's 5a medium containing 10% fetal bovine serum (FBS), 100 U/ml penicillin, and 100 μg/ml streptomycin. HCT-116 cells were seeded in a 384 Well Black Clear Bottom Ultra-Low Attachment Microplate (Corning Cat. No. 3827) in an amount of 350-800 cells/well using the DMEM/F12 medium containing 2% B27 supplement (GIBCO), 20 ng/mL epidermal growth factor (EGF) (peprotech), 10 ng/mL basic fibroblast growth factor (bFGF) (peprotech), 5 μg/mL insulin (Sigma), and 1% penicillin/streptomycin. The test compounds were added into each well to adjust the final concentration of DMSO to 0.1%, and the cells were cultured for 4 days. The number of viable cells in each well was then measured with CeilTiter-Glo® Luminescent Cell Viability Assay (Promega) to calculate the concentration of each test compound for 50% inhibition of cell proliferation (Sphere IC50 value; μmol/L).
The experiment of Test Example 1 was performed for the compound of each Example. The concentration of each test compound for 50% inhibition of cell proliferation (Sphere IC50 value; μmol/L) is shown in the following Table.

Row | Structure (SMILES) | IC50 (HCT-116 cells) | further results
1 | CC(=O)Nc1ccc(/C=C/C(=O)Nc2cn(Cc3cccc(C(F)(F)F)c3)cn2)cc1.Cl [Example 1-2, (2E)-3-[4-(Acetylamino)phenyl]-N-(1-[3-(trifluoromethyl)benzyl]-1H-imidazol-4-yl)prop-2-enamide hydrochloride] |  | ratio of Cleaved Caspase-3 positive area in the cell aggregates ([1]; 0.1 μmol/L): 24%; ratio of Cleaved Caspase-3 positive area in the cell aggregates ([1]; 1 μmol/L): 27%; ratio of viable cells to that of cells without treatment (human iPS cells; 0.1 μmol/L): 53%; ratio of viable cells to that of cells without treatment (human iPS cells; 1 μmol/L): 25%; ratio of viable cells to that of cells without treatment (human iPS cells; 10 μmol/L): 14%; concentration at which cytotoxic activity against human iPS cells was found (human iPS cells; tested at 10, 1, 0.1 and 0.01 μmol/L): ≥ 100 nM
2 | CC(=O)Nc1ccc(/C=C/C(=O)Nc2cn(Cc3cccc(Cl)c3)cn2)cc1 [Example 2] | 220 nM | 
3 | CC(=O)Nc1ccc(/C=C/C(=O)Nc2cn(Cc3cccc(OC(F)(F)F)c3)cn2)cc1 [Example 3] | 630 nM | 
4 | CC(=O)Nc1ccc(/C=C/C(=O)Nc2cn(Cc3cc(F)c(F)c(F)c3)cn2)cc1 [Example 4] | < 10 nM | 
5 | COc1ccc(/C=C/C(=O)Nc2cn(Cc3cc(F)c(F)c(F)c3)cn2)cc1OCCO [Example 5, (E)-3-(3-(2-Hydroxyethoxy)-4-methoxyphenyl)-N-(1-(3,4,5-trifluorobenzyl)-1H-imidazol-4-yl)acrylamide] | 60 nM | 
6 | COc1ccc(/C=C/C(=O)Nc2cn(Cc3cccc(Cl)c3)cn2)cc1OCCO [Example 6, (2E)-N-[1-(3-Chlorobenzyl)-1H-imidazol-4-yl]-3-[3-(2-hydroxyethoxy)-4-methoxyphenyl]prop-2-enamide] | 60 nM | 
7 | COc1ccc(/C=C/C(=O)Nc2cn(Cc3cccc(C(F)(F)F)c3)cn2)cc1OCCO [Example 7] | 90 nM | 
8 | N#Cc1ccc(/C=C/C(=O)Nc2cn(Cc3cccc(Cl)c3)cn2)cc1OCCO [Example 8] | 80 nM | 
9 | O=C(/C=C/c1cccnc1)Nc1cn(Cc2cccc(Cl)c2)cn1 [Example 9, (2E)-N-(1-(3-Chlorobenzyl)-1H-imidazol-4-yl)-3-(pyridin-3-yl)prop-2-enamide] | 890 nM | 
10 | COc1ccc(C(=O)Nc2cn(Cc3cccc(Cl)c3)cn2)cc1OC.Cl [Example 10-2, N-[1-(3-Chlorobenzyl)-1H-imidazol-4-yl]-3,4-dimethoxybenzamide hydrochloride] | 630 nM | ratio of Cleaved Caspase-3 positive area in the cell aggregates ([1]; 1 μmol/L): 26%; ratio of viable cells to that of cells without treatment (human iPS cells; 1 μmol/L): 37%; ratio of viable cells to that of cells without treatment (human iPS cells; 10 μmol/L): 17%
11 | COc1ccc(C(=O)Nc2cn(Cc3cc(F)c(F)c(F)c3)cn2)cc1OC [Example 13] | 60 nM | 
12 | COc1ccc(NC(=O)c2cn(Cc3cc(F)c(F)c(F)c3)cn2)cc1OC [Example 14] | 210 nM | 
13 | O=C(Nc1nc(CO)cs1)c1cn(Cc2cc(F)c(F)c(F)c2)cn1 [Example 16] | 629 nM | 
14 | O=C(COc1ccc(CO)nc1)Nc1cn(Cc2cc(F)c(F)c(F)c2)cn1 [Example 17] | < 10 nM | 
15 | O=C(Nc1cn(Cc2cccc(C(F)(F)F)c2)cn1)c1ccc(CO)nc1 [Example 22, 6-(hydroxymethyl)-N-{1-[3-(trifluoromethyl)benzyl]-1H-imidazol-4-yl}nicotinamide] |  | ratio of viable cells to that of cells without treatment (human iPS cells; 0.1 μmol/L): 51%; ratio of viable cells to that of cells without treatment (human iPS cells; 1 μmol/L): 31%
